Source: ChEMBL document CHEMBL4340512, “Discovery of novel triazolo[4,3-b]pyridazin-3-yl-quinoline derivatives as PIM inhibitors” (Eur J Med Chem, 2019)

What was measured:
MIA PaCa-2 [1] = assay: Antiproliferative activity against human MIAPaCa2 assessed as combination index at 20 uM incubated for 72 hrs in presence of GI50 dose of Lapatinib by CellTiter-Glo luminescence assay; type: functional
MDA-MB-231 [2] = assay: Antiproliferative activity against human MDA-MB-231 assessed as combination index at 20 uM incubated for 72 hrs in presence of GI50 dose of Palbociclib by CellTiter-Glo luminescence assay; type: functional
BT-549 = assay: Antiproliferative activity against human BT549 cells incubated for 72 hrs by CellTiter-Glo luminescence assay; type: functional; details: BT-549, 72 h
SK-MEL19 [3] = assay: Antiproliferative activity against human SK-MEL-19 assessed as combination index at 5 uM incubated for 72 hrs in presence of GI50 dose of Lapatinib by CellTiter-Glo luminescence assay; type: functional
NAMALVA = assay: Antiproliferative activity against human NAMALWA cells incubated for 72 hrs by CellTiter-Glo luminescence assay; type: functional
SK-ES1 = assay: Antiproliferative activity against human SK-ES-1 cells incubated for 72 hrs by CellTiter-Glo luminescence assay; type: functional; details: SK-ES1, 72 h
CAKI-1 = assay: Antiproliferative activity against human CAKI-1 cells incubated for 72 hrs by CellTiter-Glo luminescence assay; type: functional; details: CAKI-1, 72 h
PC-3 = assay: Antiproliferative activity against human PC3 assessed as combination index at 20 uM incubated for 72 hrs in presence of GI50 dose of GDC-0941 by CellTiter-Glo luminescence assay; type: functional
[4] = biological target: T1, Receptor-type tyrosine-protein kinase FLT3 (Homo sapiens, UniProt P36888); assay: Inhibition of human FLT3 using EAIYAAPFAKKK as substrate incubated for 60 mins by fluorescence based assay
T1 sequence (P36888 whole entry): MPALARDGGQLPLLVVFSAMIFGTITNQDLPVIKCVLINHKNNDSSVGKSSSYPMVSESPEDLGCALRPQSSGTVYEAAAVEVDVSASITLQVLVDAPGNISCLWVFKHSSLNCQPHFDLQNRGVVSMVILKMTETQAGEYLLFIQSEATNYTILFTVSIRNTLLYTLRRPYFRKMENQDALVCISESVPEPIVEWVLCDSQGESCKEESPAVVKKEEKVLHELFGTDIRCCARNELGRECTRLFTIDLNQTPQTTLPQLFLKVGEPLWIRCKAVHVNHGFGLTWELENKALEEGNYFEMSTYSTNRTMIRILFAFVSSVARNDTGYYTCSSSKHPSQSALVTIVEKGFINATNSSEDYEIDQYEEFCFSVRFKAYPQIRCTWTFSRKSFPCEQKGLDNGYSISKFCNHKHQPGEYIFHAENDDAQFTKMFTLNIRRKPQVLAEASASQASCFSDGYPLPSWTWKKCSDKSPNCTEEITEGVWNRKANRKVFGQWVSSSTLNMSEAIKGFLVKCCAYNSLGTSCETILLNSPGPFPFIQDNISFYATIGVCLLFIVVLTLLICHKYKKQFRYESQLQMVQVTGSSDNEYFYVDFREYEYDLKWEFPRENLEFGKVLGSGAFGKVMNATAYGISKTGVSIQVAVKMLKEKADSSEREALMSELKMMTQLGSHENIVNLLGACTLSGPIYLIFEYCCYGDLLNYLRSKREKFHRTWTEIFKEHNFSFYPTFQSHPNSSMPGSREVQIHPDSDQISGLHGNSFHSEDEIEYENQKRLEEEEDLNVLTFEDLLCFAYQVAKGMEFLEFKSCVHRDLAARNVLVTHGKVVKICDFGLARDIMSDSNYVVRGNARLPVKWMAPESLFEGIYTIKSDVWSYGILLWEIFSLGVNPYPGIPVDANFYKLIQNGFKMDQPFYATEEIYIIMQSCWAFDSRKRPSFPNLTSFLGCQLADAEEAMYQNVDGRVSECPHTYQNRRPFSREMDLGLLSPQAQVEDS

[5] = biological target: Serine/threonine-protein kinase pim-2 (Homo sapiens, UniProt Q9P1W9); assay: Inhibition of His tagged human recombinant PIM2 using PIM tide (ARKRRRHPSGPPTA) as substrate incubated for 1 hr by fluorescence based assay
MDA-MB-231 [6] = assay: Antiproliferative activity against human MDA-MB-231 assessed as combination index at 20 uM incubated for 72 hrs in presence of GI50 dose of GDC-0941 by CellTiter-Glo luminescence assay; type: functional
DU-145 = assay: Antiproliferative activity against human DU145 cells incubated for 72 hrs by CellTiter-Glo luminescence assay; type: functional; details: DU-145, 72 h
SK-MEL19 [7] = assay: Antiproliferative activity against human SK-MEL-19 assessed as combination index at 5 uM incubated for 72 hrs in presence of GI50 dose of Taxotere by CellTiter-Glo luminescence assay; type: functional
JeKo-1 [8] = assay: Antiproliferative activity against human JeKo1 cells incubated for 72 hrs by CellTiter-Glo luminescence assay; type: functional; details: JeKo-1, 72 h
MIA PaCa-2 [9] = assay: Antiproliferative activity against human MIAPaCa2 cells incubated for 72 hrs by CellTiter-Glo luminescence assay; type: functional; details: MIA PaCa-2, 72 h
SK-MEL19 [10] = assay: Antiproliferative activity against human SK-MEL-19 cells incubated for 72 hrs by CellTiter-Glo luminescence assay; type: functional; details: SK-MEL19, 72 h
U-251 = assay: Antiproliferative activity against human U251 cells incubated for 72 hrs by CellTiter-Glo luminescence assay; type: functional; details: U-251, 72 h
JeKo-1 [11] = assay: Antiproliferative activity against human JeKo1 assessed as combination index at 10 uM incubated for 72 hrs in presence of GI50 dose of Palbociclib by CellTiter-Glo luminescence assay; type: functional
Raji = assay: Antiproliferative activity against human Raji assessed as combination index at 20 uM incubated for 72 hrs in presence of GI50 dose of Palbociclib by CellTiter-Glo luminescence assay; type: functional
T47D = assay: Antiproliferative activity against human T47D assessed as combination index at 20 uM incubated for 72 hrs in presence of GI50 dose of Lapatinib by CellTiter-Glo luminescence assay; type: functional
[12] = Clearance in iv dosed Balb/c mouse administered as single dose measured after 0.08 to 4 hrs by HPLC/MS analysis relative to hepatic blood flow; type: ADME, organism-based; details: in vivo
MV4-11 = assay: Antiproliferative activity against human MV4-11 assessed as combination index at 10 uM incubated for 72 hrs in presence of GI50 dose of Taxotere by CellTiter-Glo luminescence assay; type: functional
HL-60 = assay: Antiproliferative activity against human HL60 cells incubated for 72 hrs by CellTiter-Glo luminescence assay; type: functional; details: HL-60, 72 h
SK-BR-3 = assay: Antiproliferative activity against human SKBR3 cells incubated for 72 hrs by CellTiter-Glo luminescence assay; type: functional; details: SK-BR-3, 72 h
JeKo-1 [13] = assay: Antiproliferative activity against human JeKo1 assessed as combination index at 10 uM incubated for 72 hrs in presence of GI50 dose of GDC-0941 by CellTiter-Glo luminescence assay; type: functional
PANC-1 = assay: Antiproliferative activity against human PANC1 cells incubated for 72 hrs by CellTiter-Glo luminescence assay; type: functional; details: PANC-1, 72 h

Sequence of Serine/threonine-protein kinase pim-2 (Q9P1W9 whole entry): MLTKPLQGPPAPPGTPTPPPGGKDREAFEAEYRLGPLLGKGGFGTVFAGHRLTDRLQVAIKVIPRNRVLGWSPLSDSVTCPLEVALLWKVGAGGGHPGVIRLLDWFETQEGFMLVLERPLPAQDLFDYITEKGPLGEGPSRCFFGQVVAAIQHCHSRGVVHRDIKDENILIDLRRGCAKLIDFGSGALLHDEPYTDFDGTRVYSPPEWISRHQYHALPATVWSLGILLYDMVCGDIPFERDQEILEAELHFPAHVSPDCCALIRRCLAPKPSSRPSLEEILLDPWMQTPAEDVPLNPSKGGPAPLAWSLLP

GI50 (BT-549): 20.4 µM | GI50 (SK-ES1): 7.38 µM | IC50 [4]: > 10 µM | IC50 [5]: 5.53 µM | GI50 (DU-145): 22.4 µM | GI50 (MIA PaCa-2 [9]): 17.4 µM | GI50 (SK-MEL19 [10]): 1.48 µM | GI50 (U-251): 17.8 µM | CLH [12]: < 30% | GI50 (HL-60): 13.6 µM | GI50 (SK-BR-3): 21 µM | GI50 (PANC-1): 25.4 µM
Structure (SMILES): COCCN1CCOc2c1cnn1c(-c3ccc4cccc(NCC5CCNCC5)c4n3)nnc21
CI (MIA PaCa-2 [1]): 0.069 | CI (MDA-MB-231 [2]): 0.047 | CI (SK-MEL19 [3]): 0.508 | GI50 (NAMALVA): 9.68 µM | GI50 (CAKI-1): 22.1 µM | CI (PC-3): 0.094 | CI (MDA-MB-231 [6]): 0.0001 | CI (SK-MEL19 [7]): 0.535 | GI50 (JeKo-1 [8]): 7.3 µM | CI (JeKo-1 [11]): 0.108 | CI (Raji): 0.52 | CI (T47D): 0.0001 | CI (MV4-11): 0.526 | CI (JeKo-1 [13]): 0.295
